Measured values taken from US9771352B2, “Hydroxyalkyl-substituted phenyltriazole derivatives and uses thereof” (BAYER PHARMA AKTIENGESELLSCHAFT, priority 2014, dated 2017).

Legend:
human V1a receptor = molecular target: T1, human V1a receptor (Homo sapiens, UniProt P37288); assay: Cellular in vitro assay for determining vasopressin receptor activity, V1a receptor cell line (photoprotein luminescence); assay type: cell-based; details: CHO cell line transfected with human V1a receptor; [Arg8]-vasopressin at EC50; compounds of the invention (Table 1A); read-out: IC50 hV1a
T1 construct: expressed in transfected cells; host or cells: CHO K1 (ATCC), also stably transfected with modified aequorin

human V2 receptor = molecular target: T2, human V2 receptor (Homo sapiens, UniProt P30518); assay: Cellular in vitro assay for determining vasopressin receptor activity, V2 receptor cell line (CRE-luciferase); assay type: cell-based; details: CHO cell line transfected with human V2 receptor; [Arg8]-vasopressin at EC50; compounds of the invention (Table 1A); read-out: IC50 hV2
T2 construct: expressed in transfected cells; host or cells: CHO K1 (ATCC) expressing firefly luciferase under a CRE-responsive promoter
How it was run: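 CHO K1 cells stably expressing human V2 receptor with CRE-driven firefly luciferase, plated the day before in DMEM/F12 with 2% FCS at 37° C. Receptor activation raises cAMP and luciferase expression; after Triton lysis and luciferin addition, luminescence is read and IC50 values derived.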

conscious rats = assay: Diuresis investigations in conscious rats kept in metabolism cages; assay type: in vivo, Wistar rats; details: Rattus norvegicus, po, read-out: Urinary volume; for response vs control in vivo at 0.3 mg/kg: dosage p.o. 0.3 mg/kg (Table 2A); for response vs control in vivo at 3 mg/kg: dosage p.o. 3.0 mg/kg (Table 2A); for response vs control in vivo at 1 mg/kg: dosage p.o. 1.0 mg/kg (Table 2A)
Experimental: Wistar rats (220-450 g body weight) are kept with free access to feed (Altromin) and drinking water. During the experiment, the animals are kept with free access to drinking water for 4 to 8 or up to 24 hours individually in metabolism cages suitable for rats of this weight class (Tecniplast Deutschland GmbH, D-82383 HohenpeiBenberg). At the beginning of the experiment, the animals are administered the test substance in a volume of 1 to 3 ml/kg body weight of a suitable solvent by means of gavage into the stomach. Control animals only receive solvent. Controls and substance tests are carried out in parallel on the same day. Control groups and substance-dose groups each consist of 4 to 8 animals. During the experiment, the urine excreted by the animals is collected continuously in a receiver at the base of the cage. The volume of urine per time unit is determined separately for each animal, and the concentration of urinary electrolytes is measured by standard methods of flame photometry. Before the beginning of the experiment, the body weight of the individual animals is determined.

T2 sequence (P30518 whole entry): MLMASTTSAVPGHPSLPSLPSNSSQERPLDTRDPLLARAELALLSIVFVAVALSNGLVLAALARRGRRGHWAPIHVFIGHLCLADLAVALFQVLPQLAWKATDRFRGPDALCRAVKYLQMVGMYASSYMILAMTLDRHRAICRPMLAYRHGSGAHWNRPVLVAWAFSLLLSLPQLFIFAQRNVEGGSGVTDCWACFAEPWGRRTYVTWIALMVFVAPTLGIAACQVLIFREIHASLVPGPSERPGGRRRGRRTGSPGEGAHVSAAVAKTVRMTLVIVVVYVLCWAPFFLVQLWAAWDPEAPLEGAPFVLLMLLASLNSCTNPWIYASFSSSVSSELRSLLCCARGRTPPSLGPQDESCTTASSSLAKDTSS
T1 sequence (P37288 whole entry): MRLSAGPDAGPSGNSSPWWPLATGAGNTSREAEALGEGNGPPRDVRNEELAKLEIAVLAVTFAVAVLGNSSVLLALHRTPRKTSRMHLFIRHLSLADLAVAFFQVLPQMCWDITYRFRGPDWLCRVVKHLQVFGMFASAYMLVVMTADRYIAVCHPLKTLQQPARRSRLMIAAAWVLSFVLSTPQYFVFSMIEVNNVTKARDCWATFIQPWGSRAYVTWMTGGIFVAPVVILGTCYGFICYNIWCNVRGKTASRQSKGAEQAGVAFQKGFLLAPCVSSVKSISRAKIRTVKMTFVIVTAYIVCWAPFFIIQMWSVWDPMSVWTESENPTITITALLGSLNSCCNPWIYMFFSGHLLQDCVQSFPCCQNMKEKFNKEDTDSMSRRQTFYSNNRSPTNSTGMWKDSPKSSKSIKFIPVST

Row | Structure (SMILES) | IC50 (human V1a receptor) | IC50 (human V2 receptor) | response vs control in vivo at 0.3 mg/kg (conscious rats) | response vs control in vivo at 3 mg/kg (conscious rats) | response vs control in vivo at 1 mg/kg (conscious rats)
1 | COc1ccccc1-n1nc(Cn2nc(-c3ccc(Cl)cc3)n(C[C@H](O)C(F)(F)F)c2=O)nc1CO [Example 3, 5-(4-Chlorophenyl)-2-{[5-(hydroxymethyl)-1-(2-methoxyphenyl)-1H-1,2,4-triazol-3-yl]methyl}-4-[(2S)-3,3,3-trifluoro-2-hydroxypropyl]-2,4-dihydro-3H-1,2,4-triazol-3-one] | 1 nM | 5.6 nM | 89% | 450% | –
2 | O=c1n(Cc2nc(CO)n(-c3ccccc3Cl)n2)nc(-c2ccc(Cl)cc2)n1C[C@H](O)C(F)(F)F [Example 4, 5-(4-Chlorophenyl)-2-{[1-(2-chlorophenyl)-5-(hydroxymethyl)-1H-1,2,4-triazol-3-yl]methyl}-4-[(2S)-3,3,3-trifluoro-2-hydroxypropyl]-2,4-dihydro-3H-1,2,4-triazol-3-one] | 0.4 nM | 5.3 nM | 91% | – | 190%
3 | Cc1ccccc1-n1nc(Cn2nc(-c3ccc(Cl)cc3)n(C[C@H](O)C(F)(F)F)c2=O)nc1CO [Example 5, 5-(4-Chlorophenyl)-2-{[5-(hydroxymethyl)-1-(2-methylphenyl)-1H-1,2,4-triazol-3-yl]methyl}-4-[(2S)-3,3,3-trifluoro-2-hydroxypropyl]-2,4-dihydro-3H-1,2,4-triazol-3-one] | 0.4 nM | 1.8 nM | 166% | – | 438%
4 | O=c1n(Cc2nc(CO)n(-c3cc(F)cc(Cl)c3)n2)nc(-c2ccc(Cl)cc2)n1C[C@H](O)C(F)(F)F [Example 6, 2-{[1-(3-Chloro-5-fluorophenyl)-5-(hydroxymethyl)-1H-1,2,4-triazol-3-yl]methyl}-5-(4-chlorophenyl)-4-[(2S)-3,3,3-trifluoro-2-hydroxypropyl]-2,4-dihydro-3H-1,2,4-triazol-3-one] | 10.6 nM | 1.7 nM | 132% | – | 439%
5 | C[C@H](O)c1nc(Cn2nc(-c3ccc(Cl)cc3)n(C[C@H](O)C(F)(F)F)c2=O)nn1-c1cccc(F)c1 [Example 76, 5-(4-Chlorophenyl)-2-({1-(3-fluorophenyl)-5-[(1S)-1-hydroxyethyl]-1H-1,2,4-triazol-3-yl}-methyl)-4-[(2S)-3,3,3-trifluoro-2-hydroxypropyl]-2,4-dihydro-3H-1,2,4-triazol-3-one] | 2.5 nM | 5.1 nM | 350% | – | –
6 | C[C@H](O)c1nc(Cn2nc(-c3ccc(Cl)cc3)n(C[C@H](O)C(F)(F)F)c2=O)nn1-c1cccc(Cl)c1 [Example 79, 5-(4-Chlorophenyl)-2-({1-(3-chlorophenyl)-5-[(1S)-1-hydroxyethyl]-1H-1,2,4-triazol-3-yl}-methyl)-4-[(2S)-3,3,3-trifluoro-2-hydroxypropyl]-2,4-dihydro-3H-1,2,4-triazol-3-one] | 3.6 nM | 1.7 nM | 612% | – | –
7 | C[C@H](O)c1nc(Cn2nc(-c3ccc(Cl)cc3)n(C[C@H](O)C(F)(F)F)c2=O)nn1-c1ccccc1Cl [Example 82, 5-(4-Chlorophenyl)-2-({1-(2-chlorophenyl)-5-[(1S)-1-hydroxyethyl]-1H-1,2,4-triazol-3-yl}-methyl)-4-[(2S)-3,3,3-trifluoro-2-hydroxypropyl]-2,4-dihydro-3H-1,2,4-triazol-3-one] | 0.7 nM | 2.3 nM | 220% | 828% | –
8 | C[C@@H](O)c1nc(Cn2nc(-c3ccc(Cl)cc3)n(C[C@H](O)C(F)(F)F)c2=O)nn1-c1ccccc1Cl [Example 83, 5-(4-Chlorophenyl)-2-({1-(2-chlorophenyl)-5-[(1R)-1-hydroxyethyl]-1H-1,2,4-triazol-3-yl}-methyl)-4-[(2S)-3,3,3-trifluoro-2-hydroxypropyl]-2,4-dihydro-3H-1,2,4-triazol-3-one] | 1 nM | 6.7 nM | 279% | – | –
